What follows are compounds tested against T1, cholesterol ester hydrolase (CEH) / cholesterol esterase (EC 3.1.1.13) (Bos taurus, UniProt P30122) (assay: In vitro inhibition of cholesteryl ester formation by cholesterol esterase (CEH)). Conditions: not given.
T1 construct: purchased Sigma Company, St. Louis, Mo., U.S.A. C-1892; host or cells: bovine pancreas
T1 sequence (P30122 19-597): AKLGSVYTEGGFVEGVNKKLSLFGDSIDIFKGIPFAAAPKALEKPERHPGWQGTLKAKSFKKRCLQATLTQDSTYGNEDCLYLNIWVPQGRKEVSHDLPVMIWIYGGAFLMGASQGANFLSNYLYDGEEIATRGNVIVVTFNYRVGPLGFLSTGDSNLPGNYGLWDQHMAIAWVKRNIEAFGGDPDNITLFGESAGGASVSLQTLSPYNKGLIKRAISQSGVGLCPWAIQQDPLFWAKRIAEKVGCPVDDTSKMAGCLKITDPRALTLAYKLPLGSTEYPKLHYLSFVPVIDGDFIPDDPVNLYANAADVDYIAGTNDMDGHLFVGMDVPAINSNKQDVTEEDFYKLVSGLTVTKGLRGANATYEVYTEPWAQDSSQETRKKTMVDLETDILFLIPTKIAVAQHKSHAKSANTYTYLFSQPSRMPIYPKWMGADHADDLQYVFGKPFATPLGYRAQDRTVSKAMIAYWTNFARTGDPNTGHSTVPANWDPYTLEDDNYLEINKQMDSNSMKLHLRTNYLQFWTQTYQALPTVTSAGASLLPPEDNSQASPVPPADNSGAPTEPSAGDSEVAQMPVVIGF
Format: biochemical, bovine
Text: (§1) The in vitro and in vivo standard experimental test procedures used to establish the ability of the anticholesterolemic compounds of this invention to prevent cholesteryl ester formation and to inhibit cholesterol absorption, are given below and the biological results are presented in Table I.
In Vitro Test Procedure: The ability of the compounds of this invention to inhibit the formation of cholesteryl esters and thereby interfere with and prevent assimilation of cholesterol into the lymphatic system and ultimately the blood stream was established by incubating the compounds at 37° C. with a mixture of cholesterol and oleic acid in the presence of buffered cholesterol esterase [(EC 3.1.1.13) Sigma Company, St. Louis, Mo., U.S.A., No. C-1892, from bovine pancreas] and measuring the amount of ester formed, according to the procedure of Field, J. of Lipid Research, 25, 389 (1984).
`CCCCNC(=O)Oc1ccc2oc3ccccc3c2c1` [Example 1, Butylcarbamic acid 2-dibenzofuranyl ester] gave an IC50 of 25 µM.
Work on `CC(C)CCCC(C)NC(=O)Oc1ccc2oc3ccccc3c2c1` (centres unmarked) [Example 2, (1.5-Dimethylhexyl) carbamic acid 2-dibenzofuranyl ester] yielded an IC50 of 3 µM.
`CCCCCCNC(=O)Oc1ccc2oc3ccccc3c2c1` [Example 3, Hexylcarbamic acid 2-dibenzofuranyl ester] showed an IC50 of 9.3 µM.
Work on `O=C(NCCCCc1ccccc1)Oc1ccc2oc3ccccc3c2c1` [Example 4, (4-Phenylbutyl)carbamic acid 2-dibenzofuranyl ester] yielded an IC50 of 68 µM.
`CNC(=O)Oc1ccc2oc3ccccc3c2c1` [Example 5, Methylcarbamic acid 2-dibenzofuranyl ester] gave an IC50 of 42 µM.
`O=C(NCC1CCCCC1)Oc1ccc2oc3ccccc3c2c1` [Example 6, (Cyclohexylmethyl)carbamic acid 2-dibenzofuranyl ester] gave an IC50 of 13.8 µM.
`CCNC(=O)Oc1ccc2oc3ccccc3c2c1` [Example 8, Ethylcarbamic acid 2-dibenzofuranyl ester] showed an IC50 of 18.9 µM.

Same assay, conditions: IC25 printed in the IC50 column; 37° C., cholesterol and oleic acid, cholesterol esterase from bovine pancreas
`CCCCCCCCCCCCNC(=O)Oc1ccc2oc3ccccc3c2c1` [Example 7, Dodecylcarbamic acid 2-dibenzofuranyl ester] was tested, and the IC25 was 7.2 µM.

What follows are compounds tested on absorption of 14C-cholesterol (assay: In vivo cholesterol absorption, [4-14C] cholesterol, serum radioactivity at six hours, normal rats). Conditions: 10 mg/kg oral, 6 hr, normal rat, percent decrease compared to control.
Protocol: as §1
In Vivo Assay: The in vivo cholesterol absorption studies were conducted in normal rats by oral administration of the compound being tested in propylene glycol and olive oil followed by oral administration of [4-^14 C] cholesterol in propylene glycol and olive oil, otherwise following the procedure of Cayen et al., J. Lipid Res. 20, 162 (1979). The serum radioactivity was measured at six hours after dosing. The results of this study are reported in the following Table I as percent decrease compared to control.
For `CC(C)CCCC(C)NC(=O)Oc1ccc2oc3ccccc3c2c1` (centres unmarked) [Example 2, (1.5-Dimethylhexyl) carbamic acid 2-dibenzofuranyl ester], the “In Vivo Results Effect on Absorption of 14C-chol, % Decrease” value (shortened to “In Vivo Results Effect … % Decrease”) was 33%.
`CCCCCCNC(=O)Oc1ccc2oc3ccccc3c2c1` [Example 3, Hexylcarbamic acid 2-dibenzofuranyl ester] was tested, and the “In Vivo Results Effect … % Decrease” value was 37%.
With `O=C(NCCCCc1ccccc1)Oc1ccc2oc3ccccc3c2c1` [Example 4, (4-Phenylbutyl)carbamic acid 2-dibenzofuranyl ester] the “In Vivo Results Effect … % Decrease” value was 44%.
With `O=C(NCC1CCCCC1)Oc1ccc2oc3ccccc3c2c1` [Example 6, (Cyclohexylmethyl)carbamic acid 2-dibenzofuranyl ester] the “In Vivo Results Effect … % Decrease” value was 43%.
`CCCCCCCCCCCCNC(=O)Oc1ccc2oc3ccccc3c2c1` [Example 7, Dodecylcarbamic acid 2-dibenzofuranyl ester] was tested, and the “In Vivo Results Effect … % Decrease” value was 13%.
With `CCNC(=O)Oc1ccc2oc3ccccc3c2c1` [Example 8, Ethylcarbamic acid 2-dibenzofuranyl ester] the “In Vivo Results Effect … % Decrease” value was 18%.

From patent US5401769A, “Dibenzofuranyl N-alkyl carbamates” (priority 1994, dated 1995)
